According to ChEMBL document CHEMBL1131967, “BN 80927: a novel homocamptothecin with inhibitory activities on both topoisomerase I and topoisomerase II” (Bioorg Med Chem Lett, 1999):

Experiments:
Type in all cases: functional, cell-based
DU-145 = assay: Antiproliferative activity against human DU145 prostate cell line
HT-29 = assay: Antiproliferative activity against human HT-29 colon cell line
MCF7 = assay: Antiproliferative activity against human MCF-7 breast cell line
SK-OV-3 = assay: Antiproliferative activity against human SKOV-3 ovarian cell line

| IC50 (DU-145) [nM] | IC50 (HT-29) [nM] | IC50 (MCF7) [nM] | IC50 (SK-OV-3) [nM] | Compound |
| --- | --- | --- | --- | --- |
| 2300 | > 10000 | 3800 | 2400 | CN(C)CCNC(=O)c1cccc2cc3ccccc3nc12 |
| 13 | 22 | 370 | 720 | CCc1c2c(nc3ccc(O)cc13)-c1cc3c(c(=O)n1C2)COC(=O)[C@]3(O)CC [7-ETHYL-10-HYDROXYCAMPTOTHECIN] |
| 560 | 890 | 1000 | 450 | Cc1cnc(NCCCN(C)C)c2c1[nH]c1ccc3cc(O)ccc3c12 [INTOPLICINE] |
| 1300 | 200 | 100000 | 4900 | COc1cc([C@@H]2c3cc4c(cc3[C@@H](O[C@@H]3O[C@@H]5CO[C@@H](C)O[C@H]5[C@H](O)[C@H]3O)[C@H]3COC(=O)[C@H]23)OCO4)cc(OC)c1O [ETOPOSIDE] |
